Experiment [1] addresses T1, CypD (Homo sapiens, UniProt P30405). Briefly: CypD binding assay, competition Fluorescence-Polarisation with fluorescine labelled cyclosporin. As for the experimental part:
The binding capacity of the compounds were measured using a competition Fluorescence-Polarisation based assay with fluorescine labelled cyclosporin. The protocol used was adapted from Hausch et al, Med Chem lett 2010, p 536.

Experiment [2] addresses T1, CypD. Kind of experiment: SPR binding. Conditions: SPR surface; read-out: SPR CypD (KDss). Background: Surface plasmon resonance follows binding to a sensor surface in real time, without labels.
Excerpt: Binding was confirmed on an SPR surface using a protocol adapted from Mori et al., J. Biomolecular Screening, 2009 p 419.

T1 sequence (P30405 30-207): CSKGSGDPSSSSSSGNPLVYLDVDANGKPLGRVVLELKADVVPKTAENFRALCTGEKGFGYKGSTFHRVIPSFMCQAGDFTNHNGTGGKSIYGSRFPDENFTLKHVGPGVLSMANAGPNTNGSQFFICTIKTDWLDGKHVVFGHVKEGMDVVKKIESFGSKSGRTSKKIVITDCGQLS

By IC50 is commonly meant the concentration that gives 50% inhibition. `O=C(NCCc1ccc2c(c1)[C@H]1C[C@@H](N2)[C@H](O)CO1)C(=O)N[C@@H]1C[C@H]2CC[C@@H]1C2` [Compound 2, N-Bicyclo[2.2.1]hept-2-yl-N′-[2-((1R,9R,10S)-10-hydroxy-12-oxa-8-aza-tricyclo[7.3.1.02,7]trideca-2,4,6-trien-4-yl)-ethyl]-oxalamide] showed a half-inhibitory concentration (IC50) on CypD [1] below 10 µM. For the same molecule, the Kd at CypD [2] is below 10 µM.
On CypD [1], `O=C(NCCc1ccccc1)C(=O)NCCc1ccc2c(c1)[C@H]1C[C@@H](N2)[C@H](O)CO1` [Compound 3, N1-(2-((2R,3S,6R)-3-hydroxy-2,3,4,6-tetrahydro-1H-2,6-methanobenzo[c][1,5]oxazocin-8-yl)ethyl)-N2-phenethyloxalamide] returned an IC50 below 10 µM. Also, on CypD [2], the Kd is below 10 µM.
`CC(C)CNC(=O)C(=O)NCCc1ccc2c(c1)[C@H]1C[C@@H](N2)[C@H](O)CO1` [Compound 4, N-1-(2-((2R,3S,6R)-3-hydroxy-2,3,4,6-tetrahydro-1H-2,6-methanobenzo[c][1,5]oxazocin-8-yl)ethyl)-N2-isobutyloxalamide] showed a concentration for half-maximal inhibition (IC50) on CypD [1] below 10 µM. Further, the Kd on CypD [2] is below 10 µM.
Consider `O=C(NCCc1cccc(C(F)(F)F)c1)C(=O)NCCc1ccc2c(c1)[C@H]1C[C@@H](N2)[C@H](O)CO1` [Compound 5, N1-(2-((2R,3S,6R)-3-hydroxy-2,3,4,6-tetrahydro-1H-2,6-methanobenzo[c][1,5]oxazocin-8-yl)ethyl)-N2-(3-(trifluoromethyl)phenethyl)oxalamide], for which the IC50 at CypD [1] is below 10 µM. Also, the Kd on CypD [2] was below 10 µM.
`CSc1ccccc1[C@H]1CCCN1C(=O)C(=O)NCCc1ccc2c(c1)[C@H]1C[C@@H](N2)[C@H](O)CO1` [Compound 6, N-[2-((1R,9R,10S)-10-hydroxy-12-oxa-8-aza-tricyclo[7.3.1.02,7]trideca-2(7),3,5-trien-4-yl)-ethyl]-2-[(R)-2-(2-methylsulfanyl-phenyl)-pyrrolidin-1-yl]-2-oxo-acetamide] returned a half-maximal inhibitory concentration (IC50) on CypD [1] of 10 to 100 µM. Besides, the Kd on CypD [2] is 10 to 100 µM.
With `O=C(NCCc1ccccc1)C(=O)NCCc1ccc2c(c1)[C@@H]1C[C@H](N2)[C@H](O)CO1` [Compound 8, N1-(2-((2S,3S,6S)-3-hydroxy-2,3,4,6-tetrahydro-1H-2,6-methanobenzo[c][1,5]oxazocin-8-yl)ethyl)-N2-phenethyloxalamide], the IC50 on CypD [1] lay within 10 to 100 µM. At CypD [2], the Kd lay within 10 to 100 µM.
The molecule `CC(C)(C)CNC(=O)C(=O)NCCc1ccc2c(c1)[C@@H]1C[C@H](N2)[C@H](O)CO1` [Compound 10, N1-(2-((2S,3S,6S)-3-hydroxy-2,3,4,6-tetrahydro-1H-2,6-methanobenzo[c][1,5]oxazocin-8-yl)ethyl)-N2-neopentyloxalamide] showed a 50% inhibitory concentration (IC50) at CypD [1] of 10 to 100 µM. In addition, at CypD [2], the Kd is 10 to 100 µM.
In turn, `O=C(NCCc1ccc2c(c1)[C@H]1C[C@@H](N2)[C@H](O)CO1)C(=O)NCc1cccc(C(F)(F)F)c1` [Compound 11, N1-(2-((2R,3S,6R)-3-hydroxy-2,3,4,6-tetrahydro-1H-2,6-methanobenzo[c][1,5]oxazocin-8-yl)ethyl)-N2-(3-(trifluoromethyl)benzyl)oxalamide] had an IC50 at CypD [1] of 10 to 100 µM. Further, the Kd at CypD [2] was 10 to 100 µM.
In the case of `O=C(NCCc1cccc(C(F)(F)F)c1)C(=O)NCCc1ccc2c(c1)[C@@H]1C[C@H](N2)[C@H](O)CO1` [Compound 12, N1-(2-((2S,3S,6S)-3-hydroxy-2,3,4,6-tetrahydro-1H-2,6-methanobenzo[c][1,5]oxazocin-8-yl)ethyl)-N2-(3-(trifluoromethyl)phenethyl)oxalamide], the IC50 at CypD [1] was in the range of 10 to 100 µM. The Kd at CypD [2] lay within 10 to 100 µM.
The molecule `O=C(NCc1ccc2c(c1)[C@@H]1C[C@H](N2)[C@H](O)CO1)C(=O)NC1CCCC1` [Compound 13, N-Cyclopentyl-N′-((1S,9S,10S)-10-hydroxy-12-oxa-8-aza-tricyclo[7.3.1.02,7]trideca-2,4,6-trien-4-ylmethyl)-oxalamide] displayed an IC50 at CypD [1] of 10 to 100 µM. Also, the Kd on CypD [2] was in the range of 10 to 100 µM.
